{Fethoc} = N-terminal Fethoc capping group (publication's abbreviation); [C(1O2)] = modified PNA monomer acting as cytosine, C(pOq) type, 1O2; [A(5)] = modified PNA monomer acting as adenine, A(p) with p=5; [G(5)] = modified PNA monomer acting as guanine, G(p) type, p=5; [G(6)] = modified PNA monomer acting as guanine, G(p) with p=6; {NH2} = C-terminal unsubstituted amide (-NH2); [C(12)] = modified PNA cytosine monomer

The record followed here is patent US12624068B2, “Exon skipping by peptide nucleic acid derivatives” (OliPass Corporation, priority 2016, dated 2026).

For data set [1], the system named is rats with diabetes-induced peripheral neuropathic pain (DPNP). Briefly: Reversal of allodynia (von Frey) in rats with diabetes-induced peripheral neuropathic pain. It is filed as in vivo, rat. The note with it: 100 pmole/Kg subcutaneous in Days 11, 13, 15, 17 and 19. The protocol: “SCN-ASO 7”, “SCN-ASO 8”, “SCN-ASO 21”, “SCN-ASO 35”, “SCN-ASO 36” and “SCN-ASO 37” were evaluated for their ability to reverse the allodynia in rats with diabetes-induced peripheral neuropathic pain (DPNP). In this example, the six SCN9A ASOs targeting a total of five splice sites were evaluated for their ability to reverse the allodynia induced by diabetic neuropathy in rats.
[Induction of DPNP and Grouping] Diabetes was induced in rats by an intraperitoneal injection of streptozotocin at 60 mg/Kg in Day 0. In Day 10, rats with DPNP were randomly assigned to […] of negative control (vehicle only), “SCN-ASO 7” 100 pmole/Kg, “SCN-ASO 8” 100 pmole/Kg, “SCN-ASO 21” 100 pmole/Kg, “SCN-ASO 35” 100 pmole/Kg, “SCN-ASO 36” 100 pmole/Kg, and “SCN-ASO 37” 100 pmole/Kg. The animals were grouped based on the von Frey scores of individual animals in Day 10. (N=8-9 per group) Allodynia was scored using a set of microfilaments (Touch Test®) according to the “Up & Down” method. [J Neurosci. Methods vol 53(1), 55-63 (1994)]
[ASO Treatment and von Frey Scoring] ASO solutions for injection were prepared by serially diluting aqueous mother stock solutions of the SCN9A ASOs to 100 nM in PBS (phosphate buffered saline). Animals were subcutaneously administered with ASO at 1 mL/Kg in Days 11, 13, 15, 17 and 19. Von Frey scoring was carried out 2 hours post dose in Days 11, 13, 15, 17 and 19. Von Frey scoring was additionally performed in Days 21 and 23 in order to assess the duration of the therapeutic activity after the final dosing. Daily von Frey scores were evaluated for statistical significance by student's t-test against the negative control group (vehicle only, i.e., PBS).

The subject of the next data set is B16F10 melanoma. The data set is described as follows: Antitumor activity against B16F10 melanoma in C57BL/6 mice. It is filed as in vivo. Here is the method:
“PD-ASO 2” was evaluated for its antitumor activity in male C57BL/6 mice (4 weeks old) injected with B16F10 melanoma cells as provided below.
[Inoculation of B16F10 Melanoma Cells] B16F10 mouse melanoma cells (Cat. Number CRL-6475, ATCC) were maintained in 150 mm culture dish containing DMEM supplemented with 10% FBS, 1% streptomycin/penicillin, and 0.01 mg/ml bovine insulin. In Day 0, ca 1×10^5 B16F10 cells dissolved in 50 μL PBS were injected to each animal at the right rear flank.
[Grouping & ASO Treatment] In Day 3, the animals were randomly assigned by weight to 4 groups of 0 (negative control), 2, 10 and 50 pmole/Kg “PD-ASO 2”. (N=15 per group)
Injection solutions were prepared by serially diluting an aqueous mother stock solution of “PD-ASO 2” in PBS to 0 nM (PBS only), 0.4 nM, 2 nM and […] “PD-ASO 2” for the negative control, 2, 10 and 50 pmole/Kg “PD-ASO 2” group, respectively.
The animals were subcutaneously administered with an injection solution at 5 mL/Kg, 2× per week during Day 3 to Day 17.
[Anti-tumor Activity] The anti-tumor activity was assessed by changes in the tumor volume between each ASO treatment group and the negative control group.

The next data set concerns human IDO1 pre-mRNA. The data set is described as follows: IDO1 nested PCR for exon skipping in SKOV3 cells. It is filed as cell-based. The note with it: 48 hours. Here is the method: “IDO-ASO 1” was evaluated for its ability to induce exon skipping in SKOV3 cells (Cat. Number HTB-77, ATCC) by IDO1 nested PCR as follows. [Cell Culture & ASO Treatment] SKOV3 (human ovary adenocarcinoma) cells were subcultured in 60 mm culture dish containing 5 mL McCoy's 5A modified medium supplemented with 10% FBS, 1% streptomycin/penicillin, 1% L-glutamine, and 1% sodium pyruvate under 5% CO2 at 37° C., and treated with “IDO-ASO 1” for 48 hours at 0 zM (negative control), 10 zM, 100 zM or 1 aM. [RNA Extraction & cDNA Synthesis by One-Step RT-PCR] Total RNA was extracted from the cells using “Universal RNA Extraction Kit” (Cat. Number 9767, Takara) according to the manufacturer's instructions. […] NO: 114); and IDO-exon 10_reverse: (5'→3') […] [Nested PCR Amplification] 1 μL of cDNA was further amplified in a 20 μL nested PCR reaction (Cat. No. K2612, Bioneer) against a set of exon-specific primers [IDO-exon 4_forward: (5'→3') […] NO: 116); and IDO-exon 9_reverse: (5'→3') […] [Identification of Exon Skipping Product] The PCR products were subjected to electrophoretic separation on a 2% agarose gel. The bands of target size were collected and analyzed by Sanger sequencing. […] [ASO Treatment] SKOV3 cells grown in 60 mm culture dish were treated with “IDO-ASO 5” at 0 (negative control), 1, 3, 10, 30 or 100 aM for 48 hours. [cDNA Synthesis by One-step PCR] […] NO: 119); and IDO-exon 8_reverse: (5'→3') […] [Nested PCR Amplification] 1 μL of cDNA was further amplified in a 20 μL nested PCR (Cat. No. K2612, Bioneer) reaction using a set of exon-specific primers [IDO-exon 1n_forward: (5'→3') […] NO: 121); and IDO-exon 8n_reverse: (5'→3') […] “IDO-ASO 6” was evaluated for its ability to induce exon skipping in SKOV3 cells by IDO1 nested PCR as described in “IDO1 Example 3” unless noted otherwise.

Setting [2] is: 2 pmole/Kg subcutaneous, 2× per week Day 3 to Day 17.

For the substance “Fethoc-TA(5)A-A(5)AG(6)-TG(6)T-A(5)CC(1O2)-TA(5)A-A(5)-NH2 (TAAAAGTGTACCTAAA; splice-switching; all peptide nucleic acid (PNA), [A(5)] at 2, 4, 10, 14, 16, [G(6)] at 6, 8, [C(1O2)] at 12, 5' {Fethoc}, 3' {NH2}; peptide nucleic acid backbone) [SCN-ASO 21]”, the “maximum therapeutic efficacy based on the von Frey scores in Day 19” value (from here on “maximum therapeutic efficacy based”) in data set [1] worked out at 93%.

As to “Fethoc-GA(5)T-A(5)TG-A(5)GT-G(6)CA(5)-C(1O2)TA(5)-A-NH2 (GATATGAGTGCACTAA; splice-switching; all peptide nucleic acid (PNA), [A(5)] at 2, 4, 7, 12, 15, [G(6)] at 10, [C(1O2)] at 13, 5' {Fethoc}, 3' {NH2}; peptide nucleic acid backbone) [SCN-ASO 35]”, the “maximum therapeutic efficacy based” value in data set [1] was 52%.

Regarding “Fethoc-CC(1O2)T-CA(5)C-CTG(5)-TTA(5)-C(1O2)CA(5)-C-NH2 (CCTCACCTGTTACCAC; splice-switching; all peptide nucleic acid (PNA), [C(1O2)] at 2, 13, [A(5)] at 5, 12, 15, [G(5)] at 9, 5' {Fethoc}, 3' {NH2}; peptide nucleic acid backbone) [PD-ASO 2]”, in the data set with B16F10 melanoma (2 pmole/Kg), the “average tumor weight in Day 19” value is about 0.35 g and the “inhibition of tumor growth by weight in Day 19” value was about 70%. For the same substance, in the data set on B16F10 melanoma (setting [2]), the “inhibition of tumor growth (tumor volume) in Day 19” value is reported as about 55% and the “tumor volume in Day 19” value is listed as about 375 mm^3. The “antitumor activity (tumor volume)” value with B16F10 melanoma (10 pmole/Kg, whole period) is “marginal without significance”. Moreover, in the data set with B16F10 melanoma (50 pmole/Kg, Day 10 to Day 17), the “antitumor activity (tumor volume)” value is “comparable to that of the 2 pmole/Kg group”. Further, the “antitumor activity (tumor volume)” value with B16F10 melanoma (50 pmole/Kg, Day 19) is reported as “disappeared in Day 19”.

For the substance “Fethoc-CA(5)A-A(5)CC(1O2)-TTA(5)-CGG(6)-A-NH2 (CAAACCTTACGGA; splice-switching; all peptide nucleic acid (PNA), [A(5)] at 2, 4, 9, [C(1O2)] at 6, [G(6)] at 12, 5' {Fethoc}, 3' {NH2}; peptide nucleic acid backbone) [IDO-ASO 5]”, in the data set with human IDO1 pre-mRNA (30 and 100 aM), the “IDO1 exon skipping by nested PCR” value was “clearly yielded the mRNA splice variants lacking exons 2-4 and exons 2-6”.

With “Fethoc-GG(6)C-AA(5)G-A(5)CC(1O2)-TGA(5)-T-NH2 (GGCAAGACCTGAT; splice-switching; all peptide nucleic acid (PNA), [G(6)] at 2, [A(5)] at 5, 7, 12, [C(1O2)] at 9, 5' {Fethoc}, 3' {NH2}; peptide nucleic acid backbone) [IDO-ASO 6]”, the “IDO1 exon skipping by nested PCR” value is reported as “clearly yielded a single mRNA splice variant lacking exons 2-5” in the data set on human IDO1 pre-mRNA (1 to 30 aM) and “the exon skipping band was not detected” with human IDO1 pre-mRNA (100 aM).

As for “Fethoc-AA(5)G-A(5)C(12)T-CG(6)G-A(5)GC(1O2)-TA(5)-NH2 (AAGACTCGGAGCTA; all peptide nucleic acid (PNA), [A(5)] at 2, 4, 10, 14, [C(12)] at 5, [G(6)] at 8, [C(1O2)] at 12, 5' {Fethoc}, 3' {NH2}) [SCN-ASO 37]”, the “maximum therapeutic efficacy based” value in data set [1] amounted to 22%.

With “Fethoc-A(5)TA(5)-CC(1O2)C-TG(6)A-A(5)TC-TG(6)T-NH2 (ATACCCTGAATCTGT; splice-switching; all peptide nucleic acid (PNA), [A(5)] at 1, 3, 10, [C(1O2)] at 5, [G(6)] at 8, 14, 5' {Fethoc}, 3' {NH2}; peptide nucleic acid backbone) [SCN-ASO 36]”, the “maximum therapeutic efficacy based” value in data set [1] stood at 0%.
